Data as given in US7880007B2, “Bicyclic substituted phenyl piperidine modulators of muscarinic receptors” (Vertex Pharmaceuticals Incorporated, priority 2004, dated 2011).

Tests used:
Format in all cases: cell-based
M1 muscarinic receptor = molecular target: T1, M1 muscarinic receptor (Homo sapiens, UniProt P11229); test: Functional mobilization of intracellular calcium (FLIPR), M1-CHO cells; conditions: for M1 Activity: M1-CHO cells, calcium mobilization (FLIPR)
T1 construct: expressed in transfected cells; host or cells: CHO (M1-CHO)
T1 sequence (P11229 1-460): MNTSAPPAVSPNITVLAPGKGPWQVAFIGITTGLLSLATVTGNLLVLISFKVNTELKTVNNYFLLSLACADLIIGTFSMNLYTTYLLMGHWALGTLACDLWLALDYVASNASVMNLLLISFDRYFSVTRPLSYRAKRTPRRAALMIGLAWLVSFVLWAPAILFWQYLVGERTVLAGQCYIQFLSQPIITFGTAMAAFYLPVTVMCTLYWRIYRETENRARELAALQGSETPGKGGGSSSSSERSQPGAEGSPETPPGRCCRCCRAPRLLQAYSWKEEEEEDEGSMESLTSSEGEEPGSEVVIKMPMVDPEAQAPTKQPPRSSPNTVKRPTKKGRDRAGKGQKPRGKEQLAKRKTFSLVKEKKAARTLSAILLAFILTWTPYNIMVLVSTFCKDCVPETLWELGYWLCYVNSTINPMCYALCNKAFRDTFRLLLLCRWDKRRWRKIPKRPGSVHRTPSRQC
Procedure: (§1) Functional Mobilization of Intracellular Calcium to Determine Muscarinic Receptor Activity:
(§2) CHO cells expressing muscarinic receptors (M1 to M5) are grown as monolayers in tissue culture flasks at 37° C. in a humidified atmosphere containing 5% CO2 and passaged every 3-5 days. The growth media is Dulbecco's modified eagles medium (DMEM, Gibco Cat #12430-054), containing 25 mM Hepes and supplemented with Fetal Bovine Serum (Hyclone, cat #SH30071.03), 0.1 mM of MEM non-essential amino acids (GIBCO, Cat #11140-050), 1 mM MEM Sodium Pyruvate (GIBCO Cat #11360-070) and 100 units/ml of Penicillin G and 100 μg/ml of Streptomycin (GIBCO Cat #15140-122). The recombinant muscarinic receptor cell lines are grown under antibiotic pressure with media containing 25 μg/ml zeocin and 500 μg/ml G418 (M1-CHO), 4 μg/ml puromycin, 50 μg/ml zeocin and 2.5 μg/ml blasticidin (M2 and M4-CHO) or 50 μg/ml zeocin and 4 μg/ml puromycin (M3 and M5-CHO).
(§3) Cells are harvested at 80-90% confluence using Versene (GIBCO Cat #15040-066), collected by centrifugation and seeded 18-24 hrs prior to running the calcium assay at a density of 5,000-10,000 cells/well in […], clear-bottomed 384-well plates (BD Biocoat, poly-D-lysine, Cat #356663). The day of the experiment, the cells are washed with a plate washer (Bioteck Instruments, ELX 405) using bath 1 buffer (140-mM NaCl, 4.5-mM KCl, 2-mM CaCl2, 1-mM MgCl2, 10-mM Hepes-Na, 10-mM Glucose, pH 7.4, with NaOH) containing 1 mM Probenecid. Next, the calcium dye Fluo-3 (25 μl/well of Fluo-3 AM at 4 μM, Molecular Probes F-1241, in Bath 1 buffer containing 1 mM Probenecid) is added to the 25 μl of Bath 1 remaining in each well after the plate wash and the dye is loaded at 37° C. in the tissue culture incubator for 60-90 min. The fluorescent dye is removed using the plate washer with Bath 1 containing 1 mM Probenecid, leaving 25 μl/well of this solution after the wash. Alternatively, cells can be loaded with the calcium indicator from Molecular Devices (Calcium 3 Assay Reagents, Cat #R7181) adding 5 μl of a 5× solution dye in Bath 1 containing 1 mM Probenecid (10 ml per dye flask cat #R7182 to generate a solution 20×) to 20 μl of the same buffer. After loading for 60 min, the experiment can be run without having to remove the dye.
(§4) Compounds are prepared at a 2× fold concentration in a 96-well plate (round bottom, Costar Corning cat #3656), by reconstituting the pre-spotted compounds in bath 1 containing 1 mM probenecid. The final concentration DMSO is 0.5%, and the amount of DMSO is normalized across the assay plate. To determine an agonist action of the compounds on muscarinic receptors, the reconstituted compounds are added (25 μl compound/well) to the cell assay plate (containing 25 μl/well) using the multi-channel robotic system of the FLIPR 3 Instrument (Molecular Devices, Sunnyvale, Calif.). To determine a functional inhibitory action of the compounds on muscarinic receptors, the reconstituted compounds are added (25 μl compound/well) to the assay plate and pre-incubated for 15 min prior to adding 25 μl of Carbachol at 3× the EC80 for each muscarinic subtype. Alternatively, the compounds can be co-applied simultaneously with the agonist. In both assay modes, the fluorescence is recorded for 60 sec (excitation wavelength is […] and emission wavelength 540 nm) using the FLIPR 3 instrument.
(§5) The potency, efficacy and selectivity of the muscarinic compounds were evaluated by screening the compound activity across the whole family (M1 to M5 cells). Compounds were also screened for activity on other proteins such as other GPCRs and ion channels to determine selectivity on M4 receptors.
(§6) Examples of activities and efficacies of the muscarinic compounds of formulae (I, Ia, Ib, and II) on modulating M1, M2, M3 and M4 receptors are shown below in Table 3. […]

M2 muscarinic receptor = molecular target: T2, M2 muscarinic receptor (Homo sapiens, UniProt P08172); test: Functional mobilization of intracellular calcium (FLIPR), M2-CHO cells; conditions: for M2 Activity: M2-CHO cells, calcium mobilization (FLIPR)
T2 construct: expressed in transfected cells; host or cells: CHO (M2-CHO)
T2 sequence (P08172 1-466): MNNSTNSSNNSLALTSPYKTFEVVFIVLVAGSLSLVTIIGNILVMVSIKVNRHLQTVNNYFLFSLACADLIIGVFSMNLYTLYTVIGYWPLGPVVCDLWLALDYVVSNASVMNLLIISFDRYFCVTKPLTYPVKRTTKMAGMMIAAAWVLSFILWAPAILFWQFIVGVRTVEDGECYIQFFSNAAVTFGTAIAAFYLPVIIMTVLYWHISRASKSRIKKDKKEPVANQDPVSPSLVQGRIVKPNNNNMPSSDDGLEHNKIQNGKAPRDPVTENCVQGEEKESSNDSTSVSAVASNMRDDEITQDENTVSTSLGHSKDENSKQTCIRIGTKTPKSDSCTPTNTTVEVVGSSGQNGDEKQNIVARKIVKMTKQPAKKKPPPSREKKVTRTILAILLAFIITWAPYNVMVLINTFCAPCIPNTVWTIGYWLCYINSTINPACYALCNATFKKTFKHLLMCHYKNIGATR
Procedure: as §1, §2, §3, §4, §5, §6

M4 muscarinic receptor = molecular target: T3, M4 muscarinic receptor (Homo sapiens, UniProt P08173); test: Functional mobilization of intracellular calcium (FLIPR), M4-CHO cells; conditions: for M4 Activity: M4-CHO cells, calcium mobilization (FLIPR)
T3 construct: expressed in transfected cells; host or cells: CHO (M4-CHO)
T3 sequence (P08173 1-479): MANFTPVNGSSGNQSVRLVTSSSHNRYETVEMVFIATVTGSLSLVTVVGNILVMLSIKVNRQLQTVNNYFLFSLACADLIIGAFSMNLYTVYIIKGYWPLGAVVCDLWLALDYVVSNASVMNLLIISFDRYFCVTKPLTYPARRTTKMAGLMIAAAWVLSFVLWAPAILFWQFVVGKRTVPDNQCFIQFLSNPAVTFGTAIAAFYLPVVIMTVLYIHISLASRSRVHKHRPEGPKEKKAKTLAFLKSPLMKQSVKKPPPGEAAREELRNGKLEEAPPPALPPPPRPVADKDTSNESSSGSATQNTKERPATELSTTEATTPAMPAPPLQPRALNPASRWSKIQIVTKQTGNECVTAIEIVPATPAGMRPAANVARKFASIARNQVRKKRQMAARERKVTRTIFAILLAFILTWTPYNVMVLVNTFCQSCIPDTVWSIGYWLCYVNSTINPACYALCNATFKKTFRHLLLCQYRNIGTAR
Procedure: as §1, §2, §3, §4, §5, §6

[1] = 100% efficacy = maximum response obtained with the Carbachol control
[2] = 100% efficacy is the maximum response obtained with the Carbachol control

CCCC1CCC(N2CCC(O)(c3cc(Cl)ccc3OC)CC2)CC1 (stereo not drawn) [Compound 164]
Emax (M1 muscarinic receptor; [1]): < 25%
M1 Activity (M1 muscarinic receptor): + (activity was measured to be greater than 5.0 μM)
Emax (M2 muscarinic receptor; [1]): < 25%
M2 Activity (M2 muscarinic receptor): + (activity was measured to be greater than 5.0 μM)
Emax (M4 muscarinic receptor; [1]): 25 to 100%
M4 Activity (M4 muscarinic receptor): ++ (activity was measured to be from 1.0 μM to 5.0 μM)

COc1ccc(OC)c(C2CCN(CC3C[C@H]4CC[C@H]3C4)CC2)c1 (stereo partly drawn) [Compound 344]
Emax (M1 muscarinic receptor; [1]): < 25%
M1 Activity (M1 muscarinic receptor): + (activity was measured to be greater than 5.0 μM)
Emax (M2 muscarinic receptor; [1]): < 25%
M2 Activity (M2 muscarinic receptor): + (activity was measured to be greater than 5.0 μM)
Emax (M4 muscarinic receptor; [1]): 25 to 100%
M4 Activity (M4 muscarinic receptor): ++ (activity was measured to be from 1.0 μM to 5.0 μM)

COc1ccc(Cl)cc1C1(OC)CCN(C2CCC3CCC2C3)CC1 (stereo not drawn) [Compound 80]
Emax (M1 muscarinic receptor; [1]): 25 to 100%
M1 Activity (M1 muscarinic receptor): ++ (activity was measured to be from 1.0 μM to 5.0 μM)
Emax (M2 muscarinic receptor; [1]): < 25%
M2 Activity (M2 muscarinic receptor): ++ (activity was measured to be from 1.0 μM to 5.0 μM)
Emax (M4 muscarinic receptor; [1]): 25 to 100%
M4 Activity (M4 muscarinic receptor): +++ (activity was measured to be less than 1.0 μM)

CCOC(=O)N1C2CCC1CC(CN1CCC(c3ccccc3OC)CC1)C2 (stereo not drawn) [Compound 20]
Emax (M1 muscarinic receptor; [1]): 25 to 100%
M1 Activity (M1 muscarinic receptor): +++ (activity was measured to be less than 1.0 μM)
Emax (M2 muscarinic receptor; [1]): < 25%
M2 Activity (M2 muscarinic receptor): + (activity was measured to be greater than 5.0 μM)
Emax (M4 muscarinic receptor; [1]): 25 to 100%
M4 Activity (M4 muscarinic receptor): +++ (activity was measured to be less than 1.0 μM)

Cc1ccc(F)cc1C1CCN(C2C[C@H]3CC[C@H](C2)C3)CC1 (stereo partly drawn) [Compound 385]
Emax (M1 muscarinic receptor; [2]): 25 to 100%
M1 Activity (M1 muscarinic receptor): ++ (activity was measured to be from 1.0 μM to 5.0 μM)
Emax (M2 muscarinic receptor; [2]): < 25%
M2 Activity (M2 muscarinic receptor): + (activity was measured to be greater than 5.0 μM)
Emax (M4 muscarinic receptor; [2]): 25 to 100%
M4 Activity (M4 muscarinic receptor): +++ (activity was measured to be less than 1.0 μM)

COc1ccc(NC(C)=O)cc1C1CCN(C2C[C@H]3CC[C@H](C2)C3)CC1 (stereo partly drawn) [Compound 75]
Emax (M1 muscarinic receptor; [1]): < 25%
M1 Activity (M1 muscarinic receptor): + (activity was measured to be greater than 5.0 μM)
Emax (M2 muscarinic receptor; [1]): < 25%
M2 Activity (M2 muscarinic receptor): + (activity was measured to be greater than 5.0 μM)
Emax (M4 muscarinic receptor; [1]): 25 to 100%
M4 Activity (M4 muscarinic receptor): ++ (activity was measured to be from 1.0 μM to 5.0 μM)

CCCC1CCC(N2CCC(OC)(c3cc(Cl)ccc3OC)CC2)CC1 (stereo not drawn) [Compound 316]
Emax (M1 muscarinic receptor; [1]): 25 to 100%
M1 Activity (M1 muscarinic receptor): ++ (activity was measured to be from 1.0 μM to 5.0 μM)
Emax (M2 muscarinic receptor; [1]): < 25%
M2 Activity (M2 muscarinic receptor): + (activity was measured to be greater than 5.0 μM)
Emax (M4 muscarinic receptor; [1]): 25 to 100%
M4 Activity (M4 muscarinic receptor): ++ (activity was measured to be from 1.0 μM to 5.0 μM)

COc1ccc(Cl)cc1C1(O)CCN(C[C@@H]2C[C@H]3C=C[C@H]2C3)CC1 [Compound 319]
Emax (M1 muscarinic receptor; [1]): < 25%
M1 Activity (M1 muscarinic receptor): + (activity was measured to be greater than 5.0 μM)
Emax (M2 muscarinic receptor; [1]): < 25%
M2 Activity (M2 muscarinic receptor): + (activity was measured to be greater than 5.0 μM)
Emax (M4 muscarinic receptor; [1]): 25 to 100%
M4 Activity (M4 muscarinic receptor): ++ (activity was measured to be from 1.0 μM to 5.0 μM)

CCOC(=O)N1C2CCC1CC(N1CCC(O)(c3cc(F)ccc3C)CC1)C2 (stereo not drawn) [Compound 95]
Emax (M1 muscarinic receptor; [1]): 25 to 100%
M1 Activity (M1 muscarinic receptor): +++ (activity was measured to be less than 1.0 μM)
Emax (M2 muscarinic receptor; [1]): < 25%
M2 Activity (M2 muscarinic receptor): + (activity was measured to be greater than 5.0 μM)
Emax (M4 muscarinic receptor; [1]): 25 to 100%
M4 Activity (M4 muscarinic receptor): +++ (activity was measured to be less than 1.0 μM)

CCOC(=O)N1[C@@H]2CC[C@@H]1CC(N1CCC(c3cc(NC(C)=O)ccc3OC)CC1)C2 (stereo partly drawn) [Compound 338]
Emax (M1 muscarinic receptor; [1]): 25 to 100%
Emax (M2 muscarinic receptor; [1]): < 25%
Emax (M4 muscarinic receptor; [1]): 25 to 100%

COc1ccc(Cl)cc1C1(OC)CCN(C[C@@H]2C[C@H]3C=C[C@H]2C3)CC1 [Compound 286]
Emax (M1 muscarinic receptor; [1]): 25 to 100%
M1 Activity (M1 muscarinic receptor): + (activity was measured to be greater than 5.0 μM)
Emax (M2 muscarinic receptor; [1]): < 25%
M2 Activity (M2 muscarinic receptor): + (activity was measured to be greater than 5.0 μM)
Emax (M4 muscarinic receptor; [1]): 25 to 100%
M4 Activity (M4 muscarinic receptor): +++ (activity was measured to be less than 1.0 μM)
